Laboratory results from article PMC10948889, “Differential scanning fluorimetry to assess PFAS binding to bovine serum albumin protein” (Scientific Reports, 2024).
Read-outs that look alike come from different tables or passages of the source.

Columns and labels:
[1] = target: T1, bovine serum albumin (BSA) (Bos taurus, UniProt P02769); assay: Label-free differential scanning fluorimetry, equilibrium-based binding model near BSA melting temperature; conditions: for Ka (association constant): 61 °C, 10 μM BSA in pH 7.4 PBS, fit to Eqs. (1) and (2), standard error in parentheses
T1 construct: purchased Sigma-Aldrich (St. Louis, MO)
Procedure: (§1) Bovine serum albumin (lyophilized powder, 99% fatty acid free) was obtained from Sigma-Aldrich (St. Louis, MO). A BSA concentration of 10 μM in pH 7.4 phosphate buffered saline (PBS) was used in each experiment. The solution of BSA was kept at 4 °C prior to use.
Experiments were conducted using a Tycho NT.6 differential scanning fluorimeter (NanoTemper, Munich, Germany). […] Solutions were prepared a day in advance of the experiment and stored at 4 °C. Immediately prior to analysis, each sample was loaded into a 1 mm diameter glass capillary and placed in the instrument. […] Fluorescence intensity was measured at 0.1 °C intervals at emission wavelengths of 330 and 350 nm. The ratio of the intensity at these wavelengths, I350/I330, was used to account for blue shifts in the emission peak wavelengths with increasing temperature. The minimum value of the first derivative of the I350/I330 curve with respect to temperature, denoting the midpoint of the melting transition where the fraction of folded to unfolded protein is 1, was taken as the melting temperature Tm. Each experiment was performed in triplicate.
As described by Eftink and Ghiron[44], baseline subtraction of the raw fluorescence intensity data collected at 350 nm was performed at both high and low temperatures. The plots were then normalized by dividing by the maximum intensity value.
The term fU is the fraction of unfolded protein based on the concentration of unfolded protein, [U], divided by the total protein, [P]t, which is the sum of [U], folded protein [F], and folded protein with bound ligand [FL]. [L] is the total free ligand by correcting the total ligand concentration, [L]t, which is a main benefit of this model. KU represents the equilibrium between folded and unfolded protein, and Kd is the ligand dissociation constant from the bound to unbound states.3 Kd=Ka-1=F[L]/[FL]

[2] = parameters: method as in PMID 29185060; conditions: octanol/water, EPA CompTox Chemicals Dashboard; cited from earlier work
[3] = target: T1, bovine serum albumin (BSA); assay: Label-free differential scanning fluorimetry, BSA melting temperature shift (protein stabilization); format: binding; conditions: for Stabilizing effect on BSA folded structure (ΔTm): ligand:BSA ratios 0:1 to 4:1, 10 μM BSA, pH 7.4 PBS
Procedure: as §1
Experiments were conducted using a Tycho NT.6 differential scanning fluorimeter (NanoTemper, Munich, Germany). PFAS was added to 2 mL of the stock BSA solution to obtain the PFAS:BSA or FA:BSA ratios of 0:1, 0.5:1, 1:1, 2:1, 3:1, and 4:1. Solutions were prepared a day in advance of the experiment and stored at 4 °C. Immediately prior to analysis, each sample was loaded into a 1 mm diameter glass capillary and placed in the instrument. […] Fluorescence intensity was measured at 0.1 °C intervals at emission wavelengths of 330 and 350 nm. The ratio of the intensity at these wavelengths, I350/I330, was used to account for blue shifts in the emission peak wavelengths with increasing temperature. The minimum value of the first derivative of the I350/I330 curve with respect to temperature, denoting the midpoint of the melting transition where the fraction of folded to unfolded protein is 1, was taken as the melting temperature Tm. Each experiment was performed in triplicate.

[4] = target: T1, bovine serum albumin (BSA); assay: Tryptophan fluorescence quenching from DSF, Hill adsorption model; format: binding; conditions: 35 °C to 50 °C
Procedure: as §1
Experiments were conducted using a Tycho NT.6 differential scanning fluorimeter (NanoTemper, Munich, Germany). PFAS was added to 2 mL of the stock BSA solution to obtain the PFAS:BSA or FA:BSA ratios of 0:1, 0.5:1, 1:1, 2:1, 3:1, and 4:1. Solutions were prepared a day in advance of the experiment and stored at 4 °C. Immediately prior to analysis, each sample was loaded into a 1 mm diameter glass capillary and placed in the instrument. Thermal scans were conducted from 35 to 95 °C at a scan rate of […] with a 285 nm excitation wavelength. Fluorescence intensity was measured at 0.1 °C intervals at emission wavelengths of 330 and 350 nm. The ratio of the intensity at these wavelengths, I350/I330, was used to account for blue shifts in the emission peak wavelengths with increasing temperature. The minimum value of the first derivative of the I350/I330 curve with respect to temperature, denoting the midpoint of the melting transition where the fraction of folded to unfolded protein is 1, was taken as the melting temperature Tm. Each experiment was performed in triplicate. The same procedure was used for the control ligand warfarin.
The Hill model has been used to correct for the presence of a fluorescent protein–ligand complex and binding cooperativity[21],[34].4 I0-I/I0-Ires=KHillQ^nHill/1+KHillQ^nHill
I0 and I are the fluorescence intensity of BSA in the absence and presence of the ligand and Ires accounts for residual fluorescence at infinite quencher concentration. KHill and nHill are the Hill binding constant and the cooperativity constant, respectively, and [Q] is the concentration of added quencher (PFAS or FA).

[5] = parameters: method as in PMID 29185060; conditions: octanol/water; experimental average (in parentheses), EPA CompTox Chemicals Dashboard; cited from earlier work
cattle = conditions: varies by sex; cited from earlier work
[6] = ligand:BSA ratio up to 4:1, native protein Tm 62 °C

T1 sequence (P02769 25-607): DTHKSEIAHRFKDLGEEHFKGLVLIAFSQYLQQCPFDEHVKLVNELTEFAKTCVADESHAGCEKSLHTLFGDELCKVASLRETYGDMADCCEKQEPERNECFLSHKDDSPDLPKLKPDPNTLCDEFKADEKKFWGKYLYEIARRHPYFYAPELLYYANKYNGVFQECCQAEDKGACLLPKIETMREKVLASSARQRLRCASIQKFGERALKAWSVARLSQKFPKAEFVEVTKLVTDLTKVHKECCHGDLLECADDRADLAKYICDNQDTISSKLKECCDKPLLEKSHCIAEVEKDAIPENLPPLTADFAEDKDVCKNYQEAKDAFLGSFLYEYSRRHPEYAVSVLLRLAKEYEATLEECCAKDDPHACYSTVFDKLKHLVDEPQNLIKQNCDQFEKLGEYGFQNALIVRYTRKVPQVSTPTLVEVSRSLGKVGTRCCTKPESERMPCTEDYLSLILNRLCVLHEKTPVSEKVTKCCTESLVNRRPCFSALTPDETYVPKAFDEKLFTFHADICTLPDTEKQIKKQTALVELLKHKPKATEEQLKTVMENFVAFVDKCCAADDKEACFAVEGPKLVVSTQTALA

CCCCCCCCCC(=O)O [DA, Decanoic acid]
Kd [1]: 27.6 µM | Log Kow (predicted average) [2]: 4.03

O=C(O)C(F)(OC(F)(F)C(F)(F)C(F)(F)F)C(F)(F)F (stereo not drawn) [GenX, Perfluoro-2-methyl-3-oxahexanoic acid]
Kd [1]: 50.5 µM | Log Kow (predicted average) [2]: 5.41 | Stabilizing effect on BSA folded structure (ΔTm) [3]: little stabilization | Temperature dependence of KHill (Hill association constant) [4]: does not change with temperature

CCCCCCCCC(=O)O [NA, Nonanoic acid]
Kd [1]: 0.341 µM | Log Kow (experimental average) [5]: 3.42 | Log Kow (predicted average) [2]: 3.41

CCCCCCCC(=O)O [OA, Octanoic acid]
Log Kow (experimental average) [5]: 3.05 | Log Kow (predicted average) [2]: 2.99

O=S(=O)([O-])C(F)(F)C(F)(F)C(F)(F)C(F)(F)F.[Na+] [PFBS, Sodium perfluorobutylsulfonate]
Ka (association constant) [1]: 2.08 (0.61) 10^4 M^−1 | Log Kow (predicted average) [2]: 2.20 | Stabilizing effect on BSA folded structure (ΔTm) [3]: little stabilization

O=C(O)C(F)(F)C(F)(F)C(F)(F)C(F)(F)C(F)(F)C(F)(F)C(F)(F)C(F)(F)C(F)(F)F [PFDA, Perfluorodecanoic acid]
Ka (association constant) [1]: 0.33 (0.26) 10^4 M^−1 | Log Kow (experimental average) [5]: 4.15 | Log Kow (predicted average) [2]: 7.32 | Stabilizing effect on BSA folded structure (ΔTm) [3]: no measurable protein stabilization | Temperature dependence of KHill (Hill association constant) [4]: increasing with temperature

O=S(=O)(O)C(F)(F)C(F)(F)C(F)(F)C(F)(F)C(F)(F)C(F)(F)F [PFHxS, Sodium perfluorohexanesulfonate]
Kd [1]: 10.6 µM | Log Kow (predicted average) [2]: 2.91 | Tm of BSA with ligand [3, 6]: 69 to 71 °C | Stabilizing effect on BSA folded structure (ΔTm) [3]: greatest stabilizing effect

O=C(O)C(F)(F)C(F)(F)C(F)(F)C(F)(F)C(F)(F)C(F)(F)C(F)(F)C(F)(F)F [PFNA, Perfluorononanoic acid]
Log Kow (experimental average) [5]: 3.54 | Log Kow (predicted average) [2]: 6.51 | Tm of BSA with ligand [3]: 69 to 71 °C | Stabilizing effect on BSA folded structure (ΔTm) [3]: greatest stabilizing effect | Temperature dependence of KHill (Hill association constant) [4]: increasing with temperature

O=C(O)C(F)(F)C(F)(F)C(F)(F)C(F)(F)C(F)(F)C(F)(F)C(F)(F)F [PFOA, Perfluorooctanoic acid]
Kd [1]: 41 µM | Log Kow (experimental average) [5]: 3.10 | Log Kow (predicted average) [2]: 5.68 | Tm of BSA with ligand [3, 6]: 69 to 71 °C | Temperature dependence of KHill (Hill association constant) [4]: increasing with temperature

O=S(=O)(O)C(F)(F)C(F)(F)C(F)(F)C(F)(F)C(F)(F)C(F)(F)C(F)(F)C(F)(F)F [PFOS, Sodium perfluorooctanesulfonate]
half-life (cattle): 39 to 120 days | Log Kow (predicted average) [2]: 4.94 | Stabilizing effect on BSA folded structure (ΔTm) [3]: minimal shift Tm
